Test results published in patent US10555987B2, “GHRH agonists for the treatment of ischemic disorders” (UNIVERSITY OF MIAMI, priority 2012, dated 2020).
Marks after values point to notes of the source that are not given here. Non-standard residues stand in square brackets, D forms with d. Residues, ends and D or L forms follow the SMILES beside them. *: point of attachment. Desaminotyrosyl = O=C(CCc1ccc(O)cc1)*; NMeY = CN[C@@H](Cc1ccc(O)cc1)C(=O)O; Agmatine = N=C(N)NCCCCN*; Nle = CCCC[C@H](N)C(=O)O; Orn = NCCC[C@H](N)C(=O)O; Abu = CC[C@H](N)C(=O)O

What was measured:
GHRH receptor [1] = biological target: T1, GHRH receptor (Homo sapiens, UniProt Q02643); experiment: GHRH receptor binding, competition with 125I-labeled JV-1-42, human pituitary membrane homogenates (Table 7); design: Normal human pituitaries were purchased from the National Hormone and Peptide Program; tissue National Hormone and Peptide Program (A.F. Parlow, Harbor-UCLA Medical Center, Torrance, Calif.); host or cells: normal human pituitary, membrane fraction; conditions: for Relative affinity (Binding potency) vs JI-38: JI-38 = 1, Table 7
T1 sequence (Q02643 23-423): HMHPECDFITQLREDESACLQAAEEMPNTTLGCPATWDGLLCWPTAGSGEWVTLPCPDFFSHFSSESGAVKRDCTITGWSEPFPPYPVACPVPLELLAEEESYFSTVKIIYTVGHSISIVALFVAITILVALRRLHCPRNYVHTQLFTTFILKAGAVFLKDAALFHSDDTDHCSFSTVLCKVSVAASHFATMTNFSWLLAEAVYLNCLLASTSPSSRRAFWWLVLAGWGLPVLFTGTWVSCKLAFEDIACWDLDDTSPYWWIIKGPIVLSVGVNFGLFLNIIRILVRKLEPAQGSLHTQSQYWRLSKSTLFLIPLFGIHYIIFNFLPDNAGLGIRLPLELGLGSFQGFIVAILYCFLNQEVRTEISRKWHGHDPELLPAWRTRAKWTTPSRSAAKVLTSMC
Description: Normal human pituitaries were purchased from the National Hormone and Peptide Program (A.F. Parlow, Los Angeles, County Harbor-UCLA Medical Center, Torrance, Calif.).

GHRH receptor [2] = biological target: T1, GHRH receptor; experiment: Receptor binding in vitro, 125I-labeled [His1,Nle27]-hGHRH(1-32)NH2, membrane receptors of human anterior pituitary cells (Table 14); conditions: for Relative affinity (Binding potency) compared to JI-38: JI-38 = 1; for Relative affinity (Binding potency) compared to hGHRH(1-29): hGHRH(1-29)NH2 = 1
Description: Normal human pituitary was purchased from the National Hormone and Peptide Program (UCLA Medical Center, Torrance, Calif.).

GH release [3] = experiment: In vivo endocrine activity, GH release after subcutaneous administration (Table 9); conditions: rat; for GH releasing potency relative to JI-38 (=1): subcutaneous (s.c.) injection
Procedure: Subcutaneous Administration. Adult male rats were used and anesthetized with pentobarbital (6 mg/100 g, b.w.), by i.p. injection. […] Blood samples were taken from the jugular vein 5, 15 and/or 30 minutes after the injection. The blood samples were centrifuged, plasma was removed and the GH level was measured byELISA. The results are summarized in terms of potency in Table 9.

[4] = tested on: myocardial infarction (Fisher-344 rats); experiment: Serial echocardiography after MI, compared to JI-38 (Example 15, Table 15); type: in vivo, rat; design: key to LVEDD: Left Ventricular End Diastolic Diameter / LVESD: Left Ventricular End Systolic Diameter / VD: Ventricular Diastole / VS: Ventricular Systole / EF: Ejection Fraction / FS: Fraction Shortening: ↓: downward arrow denotes lower than JI-38; ↑: upward arrow denotes greater than JI-38; =denotes same as JI-38; ⬇⬇: double arrow denotes greater effect; ⬆⬆: double arrow denotes greater effect; conditions: for EF: Ejection Fraction / FS: Fraction Shortening / LVEDD: Left Ventricular End Diastolic Diameter / LVESD: Left Ventricular End Systolic Diameter / VD: Ventricular Diastole / VS: Ventricular Systole: in comparison to JI-38
Procedure: Echocardiographic measurements were obtained at baseline, 2 days, 1, 2 and 4 weeks. Echocardiographic assessments were performed in anesthetized rats (2% isoflurane inhalation) using a Vevo-770 echocardiogram (Visual Sonics Inc., Toronto, Ontario, Canada) equipped with a 17.5-MHz transducer. Cardiac dimensions: LV end diastolic (LVEDD), end systolic (LVESD) diameters and fractional shortening (FS) were recorded from M-mode images using averaged measurements from 3 to 5 consecutive cardiac cycles according to the American Society of Echocardiography. Ejection fraction (EF) was calculated from bi-dimensional long-axis parasternal views taken through the infarcted area. All images were analyzed using Vevo 770 3.0.0 software (Visual Sonics Inc., Toronto, Ontario, Canada).
Myocardial infarction (MI) was induced by permanent ligation of the left coronary artery in female 6-month-old Fisher-344 rats. Following experimental myocardial infarction (MI), rats were randomly assigned to receive either placebo, JI-38, or one of the following new analogs of GHRH: MR-30 l(P-21301), MR-303(P-21303), MR-356(P-20356), MR-502(25502), MR-350(P-20350), MR-36 l(P-20361), MR-367(P-20367), MR-403(P-27403), MR-404(P-27404), and MR-409(P-27409) (10 rats per each group). The GHRH peptide agonists were adminsistered starting 2 hours post-surgery, 1 week, 2 week, and 4 week intervals. All treatment was given subcutaneously twice daily. Cardiac performance was assessed by serial echocardiography and hemodynamic analysis derived from pressure-volume loops as described before.
The echocardiographic experiments are shown in FIGS. 10-15 and the results are summarized in Table 15 (results were expressed in comparison to JI-38; downward arrow denotes lower than JI-38; upward arrow denotes greater than JI-38; =denotes same as JI-38; and double arrow denotes greater effect).

GH release [5] = experiment: GH releasing potency in vivo, subcutaneous administration (Example 14, Table 12); design: species or system rat; conditions: s.c.; for Serum GH level at selected time after injection (ng/ml), 0 min / Serum GH level at selected time after injection (ng/ml), 15 min / Serum GH level at selected time after injection (ng/ml), 30 min: male rats, dose 3 μg/kg, mean ± SEM
In short: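 Potency is expressed relative to GHRH(1-29)NH2 and JI-38 (each = 1), via equivalent GHRH(1-29)NH2 dose read from a standard curve. Peptides in 5% mannitol given i.v. or s.c. to anaesthetised male Sprague-Dawley rats (200-250 g); serum GH measured by ELISA at selected times.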

| Structure (SMILES) | Relative affinity (Binding potency) vs JI-38 (GHRH receptor [1]) | Relative affinity (Binding potency) compared to JI-38 (GHRH receptor [2]) | Relative affinity (Binding potency) compared to hGHRH(1-29) (GHRH receptor [2]) | GH releasing potency relative to JI-38 (=1) (GH release [3]; 15 min after) | GH releasing potency relative to JI-38 (=1) (GH release [3]; 30 min after) | EF: Ejection Fraction [4] | FS: Fraction Shortening [4] | LVEDD: Left Ventricular End Diastolic Diameter [4] | LVESD: Left Ventricular End Systolic Diameter [4] | VD: Ventricular Diastole [4] | VS: Ventricular Systole [4] | Serum GH level at selected time after injection (ng/ml), 0 min (GH release [5]) | Serum GH level at selected time after injection (ng/ml), 15 min (GH release [5]) | Serum GH level at selected time after injection (ng/ml), 30 min (GH release [5]) | Relative potency compared to GHRH(1-29), 15 min (GH release [5]) | Relative potency compared to JI-38, 15 min (GH release [5]) | Relative potency compared to GHRH(1-29), 30 min (GH release [5]) | Relative potency compared to JI-38, 30 min (GH release [5]) | other results |
| --- | --- | --- | --- | --- | --- | --- | --- | --- | --- | --- | --- | --- | --- | --- | --- | --- | --- | --- | --- |
| CCCC[C@H](NC(=O)[C@@H](NC(=O)[C@H](CC(=O)O)NC(=O)[C@H](CCC(N)=O)NC(=O)[C@H](CC(C)C)NC(=O)[C@H](CC(C)C)NC(=O)[C@H](CCCN)NC(=O)[C@H](CCCNC(=N)N)NC(=O)[C@H](C)NC(=O)[C@H](CO)NC(=O)[C@H](CC(C)C)NC(=O)[C@H](CCC(N)=O)NC(=O)[C@H](CC)NC(=O)[C@H](CC(C)C)NC(=O)[C@@H](NC(=O)[C@H](CCCN)NC(=O)[C@H](CCCNC(=N)N)NC(=O)[C@H](Cc1ccc(O)cc1)NC(=O)[C@H](CO)NC(=O)[C@H](CC(N)=O)NC(=O)[C@@H](NC(=O)[C@H](Cc1ccccc1)NC(=O)[C@@H](NC(=O)[C@H](C)NC(=O)[C@H](CC(=O)O)NC(=O)[C@@H](C)NC(=O)[C@H](Cc1ccc(O)cc1)NC)[C@@H](C)CC)[C@@H](C)O)C(C)C)[C@@H](C)CC)C(=O)N[C@@H](CC(=O)O)C(=O)N[C@@H](CCCNC(=N)N)C(=O)NC [Peptide P-27409, [N—Me-Tyr^1, D-Ala^2, Orn^12, Abu^15, Orn^21, Nle^27, Asp^28]hGHRH(1-29)NH—CH3] (H-[NMeY][dA]DAIFTNSYR[Orn]VL[Abu]QLSAR[Orn]LLQDI[Nle]DR-NHMe) | 4.10 | 2.71 | 7.57 | 1.47 | 1.31 | ⬆⬆ | ⬆⬆ | ⬇⬇ | ⬇⬇ | = | = | 18.9 ± 3.1 ng/mL | 427.4 ± 62.4 ng/mL | 256.7 ± 20.7 ng/mL | 141.3 | 2.24* | 380.6 |  | Stimulation of growth hormone levels after subcutaneous administration (in words) (GH release [3]; s.c.): stimulated greater growth hormone levels than hGHRH or JI-38; cardiac dimensions (LVEDD and LVESD) ([4]; after MI): reduced cardiac dimensions; cardiac performance (EF and FS) ([4]; after MI): substantial improvement on cardiac performance; GH-releasing potency after s.c. administration (in words) (GH release [5]): significantly higher potencies at 30 minutes than at 15 minutes |
| CCCC[C@H](NC(=O)[C@@H](NC(=O)[C@H](CC(=O)O)NC(=O)[C@H](CCC(N)=O)NC(=O)[C@H](CC(C)C)NC(=O)[C@H](CC(C)C)NC(=O)[C@H](CCCN)NC(=O)[C@H](CCCNC(=N)N)NC(=O)[C@H](C)NC(=O)[C@H](CO)NC(=O)[C@H](CC(C)C)NC(=O)[C@H](CCC(N)=O)NC(=O)[C@H](CC)NC(=O)[C@H](CC(C)C)NC(=O)[C@@H](NC(=O)[C@H](CCCN)NC(=O)[C@H](CCCNC(=N)N)NC(=O)[C@H](Cc1ccc(O)cc1)NC(=O)[C@H](CO)NC(=O)[C@H](CCC(N)=O)NC(=O)[C@@H](NC(=O)[C@H](Cc1ccccc1)NC(=O)[C@@H](NC(=O)[C@H](C)NC(=O)[C@H](CC(=O)O)NC(=O)[C@@H](C)NC(=O)[C@H](Cc1ccc(O)cc1)NC)[C@@H](C)CC)[C@@H](C)O)C(C)C)[C@@H](C)CC)C(=O)N[C@@H](CC(=O)O)C(=O)NCCCCNC(=N)N [Peptide P-20361, [N—Me-Tyr^1, D-Ala^2, Gln^8, Orn^12, Abu^15, Orn^21, Nle^27, Asp^28, Agm^29] hGHRH (1-29)NH2] (H-[NMeY][dA]DAIFTQSYR[Orn]VL[Abu]QLSAR[Orn]LLQDI[Nle]D-Agmatine) | 5.30 | 2.30 | 6.42 | 1.18 | 1.50 | ↓ | = | = | = | = | ↑ | 46.1 ± 6.3 ng/mL | 275.9 ± 46.4 ng/mL | 142.6 ± 18.4 ng/mL | 80 | 1.27 | 134.1 | 1.20 | GHRH receptor binding affinity (in words) (GHRH receptor [2]; compared to JI-38): improved receptor binding affinity |
| CCCC[C@H](NC(=O)[C@@H](NC(=O)[C@H](CC(=O)O)NC(=O)[C@H](CCC(N)=O)NC(=O)[C@H](CC(C)C)NC(=O)[C@H](CC(C)C)NC(=O)[C@H](CCCN)NC(=O)[C@H](CCCNC(=N)N)NC(=O)[C@H](C)NC(=O)[C@H](CO)NC(=O)[C@H](CC(C)C)NC(=O)[C@H](CCC(N)=O)NC(=O)[C@H](CC)NC(=O)[C@H](CC(C)C)NC(=O)[C@@H](NC(=O)[C@H](CCCN)NC(=O)[C@H](CCCNC(=N)N)NC(=O)[C@H](Cc1ccc(O)cc1)NC(=O)[C@H](CO)NC(=O)[C@H](CCC(N)=O)NC(=O)[C@@H](NC(=O)[C@H](Cc1ccccc1)NC(=O)[C@@H](NC(=O)[C@H](C)NC(=O)[C@H](CC(=O)O)NC(=O)[C@H](C)NC(=O)CCc1ccc(O)cc1)[C@@H](C)CC)[C@@H](C)O)C(C)C)[C@@H](C)CC)C(=O)N[C@@H](CC(=O)O)C(=O)NCCCCNC(=N)N [JI-38, [Dat^1, Gln^8, Orn^12,21, Abu^15, Nle^27, Asp^28, Agm^29]hGHRH(1-29)NH2, reference compound] (Desaminotyrosyl-ADAIFTQSYR[Orn]VL[Abu]QLSAR[Orn]LLQDI[Nle]D-Agmatine) | 1 | 1.00 | 2.79 |  |  |  |  |  |  |  |  | 33.2 ± 2.8 ng/mL | 230.0 ± 15.1 ng/mL | 128.7 ± 13.3 ng/mL | 63.1 | 1.00 | 111.8 | 1.00 | IC50 (GHRH receptor [1]; 125I-JV-1-42, human pituitary membranes, Table 7): 4.35 nM |
